Source: US20130236922A1, “COPPER(I)-ION SELECTIVE FLUORESCENT PROBE, METHOD FOR PREPARING THE SAME, METHOD FOR DIAGNOSING MALIGNANT DISEASE AND DIAGNOSIS KIT USING THE PROBE” (priority 2011, published 2013)

Key:
[1] = One-photon and two-photon fluorescence titration with free copper(I) ions; format: binding; conditions: for Kd: HEPES 20 mM, thiourea 100 μM, pH 7.0, 1:1 binding model
Procedure: Absorption spectra were obtained using a Hewlett-Packard 8453 diode array spectrophotometer and fluorescence spectra were obtained using an Amico-Bowman series 2 luminescence spectrometer equipped with a 1-cm standard quartz cell. Fluorescence quantum yield was determined according to the literature using Coumarin 307 as reference compound (J. N. Demas, G. A. Crosby, J. Phys. Chem. 1971, 75, 991).
FIGS. 2A and 2B show one-photon absorption (FIG. 2A) and fluorescence (FIG. 2B) spectra for the compound of Chemical Formula 2 (2 μM) in the presence of free copper(I) ions (0-360 pM). Referring to FIGS. 2A and 2B, when copper(I) ions were added to the compound of Chemical Formula 2 in HEPES buffer, the fluorescence intensity increased gradually with the concentration of the copper(I) ions, without effect on the absorption spectrum. It may be because the metal ion forms a complex with the compound of Chemical Formula 2 and blocks photoinduced electron transfer (PeT). When the concentration of free copper(I) ion was 360 pM, the fluorescence intensity increased by about 4 times. A similar behavior was also observed for two-photon fluorescence spectra (see FIG. 3).
Dissociation constants (Kd) of the compound of Chemical Formula 2 for one-photon and two-photon processes were calculated from fluorescence titration curves (see FIG. 4) (HEPES buffer was used. [HEPES]=20 mM, [thiourea]=100 μM, pH=7.0).

HeLa cells = assay: Two-photon microscopy detection of copper(I) ions in cultured HeLa cells; format: cell-based; conditions: compound 2 μM, 37° C., 20 minutes
Source text: In order to investigate the applicability of the compound of Chemical Formula 2 in biological cells, copper(I) ions in cultured HeLa cells were detected by two-photon microscopy.

[2] = One-photon fluorescence intensity at different pH's with and without copper(I) ions; conditions: compound 2 μM, HEPES buffer, 0 and 2 μM copper(I) ions, biologically significant pH ranges, excitation 365 nm
Source text: Light with a wavelength of 365 nm was used for excitation. […] Thus, from FIG. 5 and FIG. 6, it can be seen that the compound of Chemical Formula 2 according to the present disclosure is capable of detecting copper(I) ions with little interference by pH or other metal ion.

[3] = Solubility in HEPES buffer by the fluorescence method; format: physicochemical; conditions: aqueous buffer, HEPES buffer ([HEPES]=20 mM, pH 7.0)
Procedure: FIGS. 1A and 1B show normalized absorption (FIG. 1A) and fluorescence (FIG. 1B) spectra of the compound of Chemical Formula 2 in 1,4-dioxane, DMF, ethanol and HEPES buffer ([HEPES]=20 mM, pH 7.0). Light with a wavelength of 365 nm was used for excitation. Solubility of the compound of Chemical Formula 2 in HEPES buffer ([HEPES]=20 mM, pH 7.0) was measured as 4.0 μM by the fluorescence method disclosed in the literature (H. M. Kim and B. R. Cho, Acc. Chem. Res., 2009, 42, 863; M. K. Kim, C. S. Lim, J. T. Hong, J. H. Han, H. Y. Jang, H. M. Kim and B. R. Cho, Angew. Chem., Int. Ed., 2010, 49, 364; J. H. Lee, C. S. Lim, Y. S. Tian, J. H. Han and B. R. Cho, J. Am. Chem. Soc., 2010, 132, 1216; H. M. Kim and B. R. Cho, Chem. Asian J., 2011, 6, 58), which is sufficient for staining of cells.

[4] = Two-photon fluorescence spectra in the presence of copper(I) ions (Fd value); format: physicochemical; conditions: at 750 nm, HEPES buffer, 2 μM copper(I) ions
Source text: Referring to FIG. 7, the two-photon spectrum of the compound of Chemical Formula 2-Cu^+ complex in HEPES buffer indicated an Fd value of 67 GM at 750 nm, more than 13-fold as compared to BODIPY (<5 GM 750 nm). Accordingly, it can be conjectured that a sample stained with the compound of Chemical Formula 2 gives a much brighter two-photon image than one stained with the BODIPY dye.

[5] = Reactivity for copper(I) ions compared to competing metal ions (relative fluorescence intensity); conditions: compound 2 μM
Procedure: In FIG. 5, open bars show relative fluorescence intensity of the compound of Chemical Formula 2 (2 μM) resulting from reaction with Na^+, K^+, Mg^2+ and Ca^2+ (1 mM), Hg^2+ (2 μM) and other cations (50 mM) in 20 mM HEPES buffer (pH 7.0) before adding copper(I) ions, and filled bars show relative fluorescence intensity after adding 2 μM copper(I) ions (The cations indicated as numbers below the bars are as follows: (1) Cu^+; (2) Na^+; (3) K^+; (4) Mg^2+; (5) Ca^2+; (6) Mn^2+; (7) Fe^2+, (8) Co^2+; (9) Ni^2+; (10) Cu^2+; (11) Zn^2+; (12) Hg^2+).

[6] = Dissociation constant for the multiphoton process of the zinc(II) ion-selective probe; format: binding; conditions: Zn(II) ions; read-out: Dissociation constant (KdTP) for the multiphoton process
Source text: Accordingly, the compound could be used to detect Zn(II) ions in the picomolar (pM) to nanomolar (nM) range by multiphoton microscopy.

Kd ([1]; read-out: Dissociation constant (Kd) for the copper(I) ion, one-photon process)	Kd ([1]; read-out: Dissociation constant (Kd) for the copper(I) ion, two-photon process)	solubility [3]	Fd value of the Cu+ complex [4]	Kd [6]	Compound	Increase of fluorescence intensity on adding copper(I) ions ([1]; free copper(I) ion 360 pM, compound 2 μM, HEPES buffer, one-photon)	TPM image of labeled HeLa cells (HeLa cells)	Dependence of reactivity on pH of reaction solutions [2]	Interference by Hg2+ ([5]; Hg2+ 2 μM, 20 mM HEPES pH 7.0)	Interference by competing metal ions Na+, K+, Mg2+, Ca2+, Mn2+, Fe2+, Co2+, Ni2+, Cu2+, Zn2+ ([5]; 20 mM HEPES pH 7.0, before and after adding 2 μM copper(I) ions)
0.016 ± 0.002 nM	0.02 ± 0.003 nM	4 µM	67 GM	–	CCSCCSCCN(CCSCCSCC)c1ccc(NC(=O)CN(C)c2ccc3cc(C(C)=O)ccc3c2)cc1 [Chemical Formula 2]	about 4 times	very bright TPM image	irrelevant of the pH	only exception	not interfered
–	–	–	–	1.1 nM	CC(=O)c1ccc2cc(N(C)CC(=O)Nc3ccc(NCCN(Cc4ccccn4)Cc4ccccn4)cc3)ccc2c1 [Preparation Example 2]	–	–	–	–	–
